Measured values as given in patent US20200129592A1, “COMPOSITION FOR TREATING STROKE AND METHOD FOR SCREENING THE SAME” (CHA University Industry-Academic Cooperation Foundation, priority 2018, published 2020).

Experiments:
Type in all cases: cell-based, mouse
[1] = tested on: Raw 264.7 cells; assay: Knockdown of CREB by siRNA in Raw 264.7 cells
Procedure: After Raw 264.7 cells (2×10^5) were plated in 6-well plates, transfection with 100 nM of CREB siRNA (siCREB) and control (siCtr) was performed for 48 hrs using Lipofectamine 3000 reagent (Invitrogen, MA) according to the manufacturer's instructions. The siCREB (sense: 5′-[…]-3″, antisense: 5′-[…]-3″) and siCtr (sense: 5-ACGUGACACGUUCGGAGAA-3′, antisense: 5′-UUCUCCGAACGUGUCACGU-3″) were purchased from Genolution Pharmaceuticals, Inc. After transfection, the RNA and proteins were isolated and used for PCR and western blotting, respectively.

[2] = tested on: Raw 264.7 cells; assay: Inhibition of p-CREB with KG501, IL-1ra ELISA in Raw 264.7 cells; details: KG501 2, 5, 10 μM pretreatment 45 min, then hUMSCs-CM with LPS 200 ng/ml
Procedure: Raw 264.7 cells (2×10^5) were seeded onto the plate, and incubated for 24 hrs. The cells were pretreated with a serum-free medium containing KG501 (2 μM, 5 μM, and 10 μM, Sigma-Aldrich, MO) for 45 min. The supernatant was then removed from the dish, and the cells were treated with hUMSCs-CM in the presence of LPS (200 ng/ml). The supernatant was used for IL-1ra ELISA analysis. Independent experiments were triplicated on different days.
(§1) IL-1β and IL-1ra levels were measured in supernatants of Raw 264.7 cells using commercially available ELISA kits (IL-1β Quantikine ELISA and IL-1 ra Quantikine ELISA kits, R&D Systems, MN).

[3] = tested on: Raw 264.7 cells; assay: IL-1β and IL-1ra ELISA in supernatants of Raw 264.7 cells; details: LPS alone
Procedure: A mouse macrophage cell line (Raw 264.7 cell, ATCC, VA) was cultured according to the manufacturer's instructions. The raw 264.7 cells were treated with either LPS (100 ng/ml, Sigma-Aldrich, MO) or LPS together with hUMSCs-CM for 24 hrs, and the supernatants were isolated from each treated group.
as §1

siCREB: CREB siRNA, sense 5′-CCACAAAUCAGAUUAAUUUUU-3″, antisense 5′-AAAUUAAUCUGAUUUGUGGUU-3″ (chemistry not given here)
enhanced expression of IL1RN induced by hUMSCs-CM ([1]; LPS-stimulated Raw 264.7 cells, knockdown of CREB): reduced
expression of IL-1ra protein in Raw 264.7 cells ([1]; transfection with 100 nM siCREB, 48 hrs): reduced

O=C(Nc1ccc(Cl)cc1)c1cc2ccccc2cc1OP(=O)(O)O [KG501]
increase of IL-1ra expression by hUMSCs-CM treatment [2]: inhibited in a CREB inhibitor dose-dependent manner

lipopolysaccharide [LPS]
IL-1ra level in Raw 264.7 cells [3]: strongly elevated
IL-1β level in Raw 264.7 cells [3]: strongly elevated
